Assay [1] deals with Lobesia males. The experiment in a line: Laboratory wind tunnel preference test with pheromone-lured electric traps. Type of assay: in vivo. To be noted: cartridges with 30 μl E7,Z9-dodecadien-1-yl acetate 10^-4 g/g silicone oil plus citral 10^-1 g/g silicone oil, relative to standard (pheromone alone) set equal to one. The source says: Laboratory Wind Tunnel 4 electric traps up to […] in size were installed in a laboratory wind tunnel. As electric traps, commercially available electric insect capture appliances were rebuilt to give recording lure traps. The fluorescent tube normally responsible for the attractant action was replaced by a scent source. To avoid positional effects, the four traps were […]. The wheel rim was rotated by means of a motor having a speed of two revolutions per hour (once around its own axis and back), so that the traps continuously changed position. […] The number of moths trapped in each case was determined daily. By means of the number of moths trapped in the individual traps, the attractiveness of the particular lure was determined (preference test). The influence of various dilutions of E7,Z9-dodecadien-1-yl acetate was determined by setting the number of moths in the most common trap equal to one; the capturing ability of the other traps was calculated relative to this. […] The recapture rate of the standard was set equal to one and that of the traps with the terpene additive was calculated relative to this.

In assay [2] the test system is Lobesia males. The assay is described as follows: Outdoor wind tunnels over vine rows, simulated mating disruption. Type of assay: in vivo. From the text: In spring 1994 two outdoor wind tunnels were built over a row of vines in each case in an experimental field of the SLFA Neustadt. These were aluminum scaffoldings 2 m high, 2 m wide and 10 m long.
The front and back were covered with mosquito nets made of cotton (mesh width 1.5×1.5 mm); 50μ thick polyethylene film lay over the entire length.
Air was blown into the interior through a ventilator at the front of the tunnel.
Two traps each were attached at a height of approximately 60 cm in the interior of the two wind tunnels on the ventilator side. The traps were lured with E7,Z9-dodecadien-1-yl acetate. Tunnel 1 remained untreated and served as a control. To simulate a mating disruption situation, 10 filter papers were uniformly distributed at various heights (20-120 cm) in tunnel 2 along the row of grapevines. 1 ml of citral solution in silicone oil with a dilution of 10^−1 g/g was in each case added dropwise to these in order to achieve a uniform concentration of the substance in the interior. A specific number of Lobesia males were in each case set free on the sides of the two wind tunnels opposite to the ventilator sides. After the end of the experiment, the Lobesia males captured in the traps were counted and the recapture rate was determined.

As for `CC(C)=CCCC(C)=CC=O` [citral], the “inhibition of the recapture rate” value is recorded as 90% with Lobesia males [1] and 94.5% in the assay with Lobesia males [2] (tunnel 2 (citral, 10 filter papers, 1 ml of 10^-1 g/g in silicone oil) versus untreated control tunnel 1). Further, the Recapture rate in the assay on Lobesia males [2] (ratio of captured to released Lobesia males, traps lured with E7,Z9-dodecadien-1-yl acetate, 10 filter papers each with 1 ml citral solution 10^-1 g/g in silicone oil in the tunnel) was 0.01.

The values are drawn from patent US6475479B1, “Terpenes for reducing the effect of pheromone on lepidoptera” (BASF Aktiengesellschaft, priority 1995, dated 2002).
